Experimental data from ChEMBL document CHEMBL4706747, “Discovery of 5-Nitro-6-thiocyanatopyrimidines as Inhibitors of Cryptococcus neoformans and Cryptococcus gattii” (ACS Med Chem Lett, 2021).
Values after ≈ are worked out from the molar mass of the structure shown. Values joined by “and” are separate entries in the source; they are usually repeats but may differ in a detail not shown here. Identical values can stand only once.

Key:
[1] = Cytotoxicity against human HepDE19 cells incubated for 72 hrs by MTS assay; format: cell-based
Cryptococcus neoformans [2] = assay: Antifungal activity against Cryptococcus neoformans KN99alpha assessed as fungal growth inhibition after 48 hrs by limiting dilution method; format: functional
[3] = Antifungal activity against Cryptococcus gattii RSA-3615 assessed as fungal growth inhibition after 48 hrs by limiting dilution method; format: functional, Cryptococcus gattii VGI
Cryptococcus neoformans [4] = assay: Antifungal activity against Cryptococcus neoformans assessed as fungal growth inhibition after 72 hrs by broth microdilution method; format: functional
Cryptococcus neoformans [5] = assay: Antifungal activity against fluconazole-resistant Cryptococcus neoformans DUMC-158.03 assessed as fungal growth inhibition after 48 hrs by limiting dilution method; format: functional
Cryptococcus neoformans [6] = assay: Synergistic antifungal activity against Cryptococcus neoformans KN99alpha assessed as fractional inhibitory concentration index in presence of amphotericin B by checkerboard assay; format: functional
Cryptococcus neoformans [7] = assay: Synergistic antifungal activity against Cryptococcus neoformans KN99alpha assessed as fractional inhibitory concentration index in presence of fluconazole by checkerboard assay; format: functional
[8] = Selectivity index, ratio of CC50 for human HepDE19 cells to MIC80 for Cryptococcus neoformans KN99alpha; format: toxicity; conditions: read-out: Selectivity Index

Row | Structure (SMILES) | MIC80 (Cryptococcus neoformans [2]) | MIC80 [3] | CC50 at 72 h [1] | also measured
1 | N#CSc1ncnc(NCCc2ccccc2)c1[N+](=O)[O-] | 3.51 µM and 1.05 µg/mL | 2.34 µM and 0.7 µg/mL | 15.1 µM and 4.55 µg/mL | 
2 | O[C@@](Cn1cnnn1)(c1ccc(F)cc1F)C(F)(F)c1ccc(-c2ccc(OC(F)(F)F)cc2)cn1 |  |  |  | MIC50 (Cryptococcus neoformans [4]): 0.015 µg/mL (≈ 0.0292 µM); MIC (Cryptococcus neoformans [4]; read-out: MIC100): 0.06 µg/mL (≈ 0.117 µM)
3 | CC(C)Nc1ncnc(SC#N)c1[N+](=O)[O-] | 2.34 µM and 0.55 µg/mL | 0.58 µM and 0.13 µg/mL | 12 µM and 2.87 µg/mL | MIC80 (Cryptococcus neoformans [5]): 2.34 µM and 0.55 µg/mL
4 | CSc1nc(NCCc2ccccc2)c([N+](=O)[O-])c(SC#N)n1 | 9.37 µM and 3.25 µg/mL | 1.17 µM and 0.4 µg/mL | 15.4 µM and 5.35 µg/mL | 
5 | Cc1nc(OC(C)C)c([N+](=O)[O-])c(SC#N)n1 | 1 µM and 0.25 µg/mL | 1.17 µM and 0.29 µg/mL | 14.6 µM and 3.71 µg/mL | MIC80 (Cryptococcus neoformans [5]): 1.17 µM and 0.29 µg/mL
6 | CCOc1nc(C)nc(SC#N)c1[N+](=O)[O-] | 1.17 µM and 0.27 µg/mL | 0.29 µM and 0.06 µg/mL | 19.8 µM and 4.76 µg/mL | MIC80 (Cryptococcus neoformans [5]): 2.34 µM and 0.56 µg/mL
7 | CCCOc1nc(C)nc(SC#N)c1[N+](=O)[O-] | 0.6 µM and 0.15 µg/mL | 1.17 µM and 0.29 µg/mL | 15.8 µM and 4.02 µg/mL | MIC80 (Cryptococcus neoformans [5]): 1.17 µM and 0.29 µg/mL
8 | CCN(c1ncnc(SC#N)c1[N+](=O)[O-])C(C)C | 4.55 µM and 1.4 µg/mL | 1.17 µM and 0.3 µg/mL | 10.7 µM and 2.86 µg/mL | 
9 | N#CSc1ncnc(N2CCCCCC2)c1[N+](=O)[O-] | 2.34 µM and 0.65 µg/mL | 2.34 µM and 0.65 µg/mL | 17.7 µM and 4.94 µg/mL | MIC80 (Cryptococcus neoformans [5]): 2.34 µM and 0.65 µg/mL
10 | CC(C)N(Cc1ccccc1)c1ncnc(SC#N)c1[N+](=O)[O-] | > 50 µM and > 16.5 µg/mL | > 25 µM and > 8.23 µg/mL |  | 
11 | CCN(CC)c1ncnc(SC#N)c1[N+](=O)[O-] | 9.37 µM and 2.37 µg/mL | 0.14 µM and 0.03 µg/mL |  | 
12 | N#CSc1ncnc(N2CCCCC2)c1[N+](=O)[O-] | 2.34 µM and 0.61 µg/mL | 1.17 µM and 0.3 µg/mL | 11.9 µM and 3.16 µg/mL | MIC80 (Cryptococcus neoformans [5]): 4.68 µM and 1.24 µg/mL
13 | N#CSc1ncnc(NCc2ccc(Cl)cc2)c1[N+](=O)[O-] | 5.85 µM and 1.88 µg/mL | 1.17 µM and 0.37 µg/mL | 22.5 µM and 7.25 µg/mL | 
14 | N#CSc1ncnc(NC2CCCC2)c1[N+](=O)[O-] | 4.9 µM and 1.29 µg/mL | 1.17 µM and 0.3 µg/mL |  | MIC80 (Cryptococcus neoformans [5]): 2.34 µM and 0.62 µg/mL
15 | CNc1nc(/C=C/c2ccccc2)nc(SC#N)c1[N+](=O)[O-] | > 50 µM and > 15.7 µg/mL | > 25 µM and > 7.83 µg/mL |  | 
16 | Cc1nc(NC2CC2)c([N+](=O)[O-])c(SC#N)n1 | 0.6 µM and 0.15 µg/mL | 0.58 µM and 0.14 µg/mL | 12.7 µM and 3.19 µg/mL | fractional inhibitory concentration index (FICI) (Cryptococcus neoformans [6]): 1.25; MIC80 (Cryptococcus neoformans [5]): 1.17 µM and 0.29 µg/mL; fractional inhibitory concentration index (FICI) (Cryptococcus neoformans [7]): 1.5; selectivity ratio [8]: 16
17 | N#CSc1ncnc(NCc2cccc(C(F)(F)F)c2)c1[N+](=O)[O-] | 9.37 µM and 3.32 µg/mL | 4.68 µM and 1.66 µg/mL | 25.9 µM and 9.21 µg/mL | 
18 | N#CSc1ncnc(NCc2ccccc2)c1[N+](=O)[O-] | 2.34 µM and 0.66 µg/mL | 1.17 µM and 0.33 µg/mL | 19.6 µM and 5.63 µg/mL | MIC80 (Cryptococcus neoformans [5]): 1.17 µM and 0.33 µg/mL
19 | CC(C)C(C)Nc1ncnc(SC#N)c1[N+](=O)[O-] (stereo unspecified) | 3 µM and 0.8 µg/mL |  |  | 
20 | CN(Cc1ccccc1)c1ncnc(SC#N)c1[N+](=O)[O-] | 2.34 µM and 0.7 µg/mL | 1.17 µM and 0.35 µg/mL | 18.8 µM and 5.66 µg/mL | 
21 | CCC(CC)Nc1ncnc(SC#N)c1[N+](=O)[O-] | 18.5 µM and 4.94 µg/mL | > 25 µM and > 6.68 µg/mL |  | 
22 | Cc1nc(N)c([N+](=O)[O-])c(SC#N)n1 | 2.34 µM and 0.48 µg/mL | 0.58 µM and 0.12 µg/mL | 24.5 µM and 5.17 µg/mL | MIC80 (Cryptococcus neoformans [5]): 2.34 µM and 0.49 µg/mL
23 | CC(C)Nc1nc(C(F)(F)F)nc(SC#N)c1[N+](=O)[O-] | 12.2 µM and 4.4 µg/mL | > 25 µM and > 7.68 µg/mL | 42.8 µM and 13.2 µg/mL | MIC80 (Cryptococcus neoformans [5]): 18.8 µM and 5.76 µg/mL
24 | CNc1nc(C)nc(SC#N)c1[N+](=O)[O-] | 2.34 µM and 0.52 µg/mL | 1.17 µM and 0.26 µg/mL | > 100 µM and > 22.5 µg/mL | MIC80 (Cryptococcus neoformans [5]): 2.34 µM and 0.52 µg/mL

The next lines start with results.

Row | MIC80 (Cryptococcus neoformans [2]) | MIC80 [3] | Structure (SMILES) | CC50 at 72 h [1] | also measured
25 | 50 µM and 15.8 µg/mL | 2.34 µM and 0.73 µg/mL | Cc1nc(NCCc2ccccc2)c([N+](=O)[O-])c(SC#N)n1 | 12.3 µM and 3.87 µg/mL | 
26 | 4.68 µM and 1.11 µg/mL | 2.34 µM and 0.55 µg/mL | Cc1nc(SC#N)c([N+](=O)[O-])c(N(C)C)n1 |  | 
27 | 4.68 µM and 1.23 µg/mL | 1.17 µM and 0.3 µg/mL | Cc1nc(SC#N)c([N+](=O)[O-])c(N2CCCC2)n1 |  | 
28 | 9.37 µM and 2.61 µg/mL | 1.17 µM and 0.32 µg/mL | CC1CCCCN1c1ncnc(SC#N)c1[N+](=O)[O-] (stereo unspecified) |  | 
29 | 9 µM and 2.51 µg/mL | 2.34 µM and 0.65 µg/mL | Cc1nc(NC2CCCC2)c([N+](=O)[O-])c(SC#N)n1 |  | 
30 | 4.68 µM and 1.05 µg/mL | 1.17 µM and 0.26 µg/mL | CN(C)c1ncnc(SC#N)c1[N+](=O)[O-] |  | 
31 | 50 µM and 15.8 µg/mL | 1.17 µM and 0.36 µg/mL | Cc1ccc(CNc2nc(C)nc(SC#N)c2[N+](=O)[O-])cc1 | 14.7 µM and 4.65 µg/mL | 
32 | 9.37 µM and 2.5 µg/mL | 2.34 µM and 0.62 µg/mL | CCN(CC)c1nc(C)nc(SC#N)c1[N+](=O)[O-] |  | 
33 | 1.9 µM and 0.45 µg/mL | 1.17 µM and 0.27 µg/mL | CC(C)Oc1ncnc(SC#N)c1[N+](=O)[O-] | 23.3 µM and 5.6 µg/mL | 
34 | 9 µM and 2.53 µg/mL | 9.37 µM and 2.63 µg/mL | CCC(CC)Nc1nc(C)nc(SC#N)c1[N+](=O)[O-] |  | 
35 | 18.8 µM and 5.49 µg/mL | 4.68 µM and 1.37 µg/mL | Cc1nc(SC#N)c([N+](=O)[O-])c(N2CCCCCC2)n1 |  | 
36 | 4.68 µM and 0.92 µg/mL | 1.17 µM and 0.22 µg/mL | N#CSc1ncnc(N)c1[N+](=O)[O-] |  | 
37 | 4.68 µM and 1.37 µg/mL | 2.34 µM and 0.68 µg/mL | N#CSc1ncnc(N2CCCCCCC2)c1[N+](=O)[O-] |  | 
38 | 18.8 µM and 5.49 µg/mL | 0.58 µM and 0.16 µg/mL | Cc1nc(SC#N)c([N+](=O)[O-])c(N2CCCCC2C)n1 (stereo unspecified) |  | 
39 | 3.9 µM and 0.93 µg/mL | 4.68 µM and 1.12 µg/mL | CCCOc1ncnc(SC#N)c1[N+](=O)[O-] | 31.8 µM and 7.64 µg/mL | 
40 | 9.37 µM and 2.74 µg/mL | 15.6 µM and 4.58 µg/mL | CC1CCCC(C)N1c1ncnc(SC#N)c1[N+](=O)[O-] (stereo unspecified) |  | 
41 | 9.37 µM and 1.98 µg/mL | > 25 µM and > 5.3 µg/mL | COc1ncnc(SC#N)c1[N+](=O)[O-] |  | 
42 | 50 µM and 15.8 µg/mL |  | CC(C)Nc1nc(-c2ccccc2)nc(SC#N)c1[N+](=O)[O-] |  | 
43 | 6 µM and 1.67 µg/mL | 1.17 µM and 0.32 µg/mL | N#CSc1ncnc(NC2CCCCC2)c1[N+](=O)[O-] |  | 
44 | 2.34 µM and 0.68 µg/mL | 9.37 µM and 2.74 µg/mL | CC1CC(C)CN(c2ncnc(SC#N)c2[N+](=O)[O-])C1 (stereo unspecified) | 33.6 µM and 9.86 µg/mL | 
45 | 18.8 µM and 5.76 µg/mL | 9.37 µM and 2.88 µg/mL | Cc1nc(SC#N)c([N+](=O)[O-])c(N2CC(C)CC(C)C2)n1 (stereo unspecified) |  | 
46 | 4.68 µM and 1.56 µg/mL | 4.68 µM and 1.56 µg/mL | CSc1nc(NCc2ccccc2)c([N+](=O)[O-])c(SC#N)n1 | 18.6 µM and 6.2 µg/mL | 
47 | > 50 µM and > 24.6 µg/mL | > 25 µM and > 12.3 µg/mL | Cc1nc(NC2CCCCC2)c([N+](=O)[O-])c(SC#N)n1 |  | 
48 | 9.37 µM and 3.25 µg/mL | 4.68 µM and 1.62 µg/mL | CSc1nc(NCc2ccc(C)cc2)c([N+](=O)[O-])c(SC#N)n1 | 19.2 µM and 6.67 µg/mL | 
49 | 18.8 µM and 5.76 µg/mL | 2.34 µM and 0.71 µg/mL | Cc1nc(SC#N)c([N+](=O)[O-])c(N2CCCCCCC2)n1 |  | 
50 | 50 µM and 15.1 µg/mL | 18.8 µM and 5.64 µg/mL | Cc1nc(NCc2ccccc2)c([N+](=O)[O-])c(SC#N)n1 | 15.9 µM and 4.78 µg/mL | 
51 | 6 µM and 1.76 µg/mL | 4.68 µM and 1.37 µg/mL | CN(c1ncnc(SC#N)c1[N+](=O)[O-])C1CCCCC1 | 25.3 µM and 7.42 µg/mL | 
